In US12448394B2, “Heterocyclic pyrazole derivatives as type III receptor tyrosine kinase inhibitors” (DEVELOPMENT CENTER FOR BIOTECHNOLOGY, priority 2019, dated 2025):
Residue numbers refer to the chain shown, from its start.

What was measured:
[1] = tested on: experimental autoimmune encephalomyelitis (EAE); conditions: mouse model for multiple sclerosis; cited from earlier work
FLT3 kinase = target: T1, FLT3 kinase (Homo sapiens, UniProt P36888); assay: FLT3 kinase assay (AlphaScreen); type: biochemical; conditions: read-out: Ranking of IC50 values, FLT3
T1 construct: purchased SignalChem
T1 sequence (P36888 27-993): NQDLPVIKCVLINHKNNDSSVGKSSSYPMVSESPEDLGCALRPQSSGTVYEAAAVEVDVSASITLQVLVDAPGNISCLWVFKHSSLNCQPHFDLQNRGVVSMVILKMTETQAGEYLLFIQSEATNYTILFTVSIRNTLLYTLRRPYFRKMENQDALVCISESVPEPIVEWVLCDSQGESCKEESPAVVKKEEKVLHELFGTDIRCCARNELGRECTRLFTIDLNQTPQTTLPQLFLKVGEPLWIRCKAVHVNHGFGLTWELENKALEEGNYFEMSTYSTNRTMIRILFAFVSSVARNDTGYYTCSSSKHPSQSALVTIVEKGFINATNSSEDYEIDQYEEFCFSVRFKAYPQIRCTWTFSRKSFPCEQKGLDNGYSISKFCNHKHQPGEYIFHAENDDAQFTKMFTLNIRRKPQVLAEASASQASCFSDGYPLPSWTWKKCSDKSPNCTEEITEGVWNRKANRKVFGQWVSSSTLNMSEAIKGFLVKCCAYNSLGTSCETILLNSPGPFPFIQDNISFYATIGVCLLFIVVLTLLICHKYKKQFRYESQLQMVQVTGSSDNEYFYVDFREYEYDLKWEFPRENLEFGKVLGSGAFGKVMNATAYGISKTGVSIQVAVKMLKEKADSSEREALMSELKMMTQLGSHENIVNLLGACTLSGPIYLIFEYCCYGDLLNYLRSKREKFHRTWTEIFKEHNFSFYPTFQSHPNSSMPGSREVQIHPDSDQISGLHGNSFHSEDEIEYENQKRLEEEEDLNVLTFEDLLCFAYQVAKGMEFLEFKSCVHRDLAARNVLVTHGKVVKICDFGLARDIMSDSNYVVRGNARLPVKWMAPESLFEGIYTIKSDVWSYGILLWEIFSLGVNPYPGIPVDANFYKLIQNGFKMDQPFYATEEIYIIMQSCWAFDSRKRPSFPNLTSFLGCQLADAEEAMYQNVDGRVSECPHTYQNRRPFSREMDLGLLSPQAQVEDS
Method: (§1) Inhibition of FLT3 kinase activity by a test compound disclosed herein was estimated by AlphaScreen (PerkinElmer, Akron, Ohio, USA). Standard assay conditions were 1.5 ng of recombinant FLT3 kinase (SignalChem, Richmond, BC, Canada) with 6 ng Biotin-conjugated Poly-(Glu 4: Tyr 1) (Cisbio, Bedford, MA, USA) in the assay buffer (10 μM ATP, 10 mM MOPs, pH7.0, 0.21 mM EDTA, 0.5% glycerol, 1 mg/mL BSA, 0.01% 2-mercaptoethanol, 0.001% Brij35, 10 mM MgCl2) in a final volume of 25 μL. Reactions were incubated at 30° C. for 30 min and stopped by adding 5 μL of 50 mM EDTA. Analysis of resulting product using an AlphaScreen kit and counted with Enspire Alpha (PerkinElmer, Waltham, MA, USA). […] The IC50 values of inhibitors were determined after carrying out assays with each compound at serially diluted concentrations in duplication. The results were analyzed using linear regression software (GraphPad Prism 5; GraphPad Software Inc.)

FLT3-D835Y mutant kinase = target: T2, FLT3-D835Y mutant kinase (Homo sapiens, UniProt P36888, D835Y); assay: FLT3-D835Y mutant kinase assay (AlphaScreen); type: biochemical; conditions: read-out: Ranking of IC50 values, FLT3-D835Y
T2 construct: purchased SignalChem
T2 sequence (P36888 27-993 D835Y): T1 sequence (P36888 27-993) with D809Y
Method: as §1, with “FLT3-D835Y mutant” for “FLT3”, “(PerkinElmer).” for “(PerkinElmer, Akron, Ohio, USA).”, “1” for “1.5”, “(SignalChem)” for “(SignalChem, Richmond, BC, Canada)”, “(Cisbio)” for “(Cisbio, Bedford, MA, USA)”, “(PerkinElmer).” for “(PerkinElmer, Waltham, MA, USA).”

PDGFRα kinase = target: T3, PDGFRα kinase (Homo sapiens, UniProt P16234); assay: PDGFRα kinase assay (AlphaScreen); type: biochemical; conditions: read-out: Ranking of IC50 values, PDGFRα
T3 construct: purchased SignalChem
T3 sequence (P16234 24-1089): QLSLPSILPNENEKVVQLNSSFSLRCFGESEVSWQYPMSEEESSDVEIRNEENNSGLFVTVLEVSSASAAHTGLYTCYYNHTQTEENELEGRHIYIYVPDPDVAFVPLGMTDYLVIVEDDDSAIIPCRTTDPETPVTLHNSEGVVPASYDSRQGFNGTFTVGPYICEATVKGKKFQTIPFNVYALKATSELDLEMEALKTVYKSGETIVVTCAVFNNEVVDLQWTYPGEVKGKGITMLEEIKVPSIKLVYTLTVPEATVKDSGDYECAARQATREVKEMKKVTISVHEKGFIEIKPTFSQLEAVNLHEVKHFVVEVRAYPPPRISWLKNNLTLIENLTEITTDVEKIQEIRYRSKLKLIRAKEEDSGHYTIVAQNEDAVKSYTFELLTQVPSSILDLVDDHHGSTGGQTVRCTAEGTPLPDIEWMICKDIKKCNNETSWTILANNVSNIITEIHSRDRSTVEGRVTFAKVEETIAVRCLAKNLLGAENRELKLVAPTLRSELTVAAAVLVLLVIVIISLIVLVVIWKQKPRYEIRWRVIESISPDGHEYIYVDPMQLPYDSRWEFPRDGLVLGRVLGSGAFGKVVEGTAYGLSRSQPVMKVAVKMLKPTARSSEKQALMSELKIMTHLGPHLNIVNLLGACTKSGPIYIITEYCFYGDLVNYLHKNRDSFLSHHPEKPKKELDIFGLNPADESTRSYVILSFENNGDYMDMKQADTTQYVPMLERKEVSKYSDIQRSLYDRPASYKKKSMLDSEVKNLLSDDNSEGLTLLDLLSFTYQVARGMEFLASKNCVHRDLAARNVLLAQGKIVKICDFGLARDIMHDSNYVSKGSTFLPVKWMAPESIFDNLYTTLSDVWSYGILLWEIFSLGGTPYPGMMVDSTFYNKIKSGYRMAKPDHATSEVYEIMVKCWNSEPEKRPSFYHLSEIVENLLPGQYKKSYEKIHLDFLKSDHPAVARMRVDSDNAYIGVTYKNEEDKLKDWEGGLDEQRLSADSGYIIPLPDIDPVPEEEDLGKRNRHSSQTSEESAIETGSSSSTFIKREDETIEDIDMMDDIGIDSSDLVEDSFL
Method: Inhibition of PDGFRα kinase activity by a test compound disclosed herein was estimated by AlphaScreen (PerkinElmer). Standard assay conditions were 1.5 ng of recombinant PDGFRα kinase (SignalChem) with 6 ng Biotin-conjugated Poly-(Glu 4: Tyr 1) (Cisbio) in the assay buffer (10 μM ATP, 10 mM MOPs, pH 7.0, 0.21 mM EDTA, 0.5% glycerol, 1 mg/mL BSA, 0.01% 2-mercaptoethanol, 0.001% Brij35, 10 mM MgCl2) in a final volume of 25 μL. Reactions were incubated at 30° C. for 30 min and stopped by adding […] of 50 mM EDTA. Analysis of resulting product using an AlphaScreen kit and counted with Enspire Alpha (PerkinElmer). […] The IC50 values of inhibitors were determined after carrying out assays with each compound at serially diluted concentrations in duplication. The results were analyzed using linear regression software (GraphPad Prism 5; GraphPad Software Inc.)

MET kinase = target: T4, MET kinase (Homo sapiens, UniProt P08581); assay: MET kinase assay (AlphaScreen, counter screen); type: biochemical; conditions: read-out: Ranking of IC50 values, MET
T4 construct: purchased SignalChem
T4 sequence (P08581 25-1390): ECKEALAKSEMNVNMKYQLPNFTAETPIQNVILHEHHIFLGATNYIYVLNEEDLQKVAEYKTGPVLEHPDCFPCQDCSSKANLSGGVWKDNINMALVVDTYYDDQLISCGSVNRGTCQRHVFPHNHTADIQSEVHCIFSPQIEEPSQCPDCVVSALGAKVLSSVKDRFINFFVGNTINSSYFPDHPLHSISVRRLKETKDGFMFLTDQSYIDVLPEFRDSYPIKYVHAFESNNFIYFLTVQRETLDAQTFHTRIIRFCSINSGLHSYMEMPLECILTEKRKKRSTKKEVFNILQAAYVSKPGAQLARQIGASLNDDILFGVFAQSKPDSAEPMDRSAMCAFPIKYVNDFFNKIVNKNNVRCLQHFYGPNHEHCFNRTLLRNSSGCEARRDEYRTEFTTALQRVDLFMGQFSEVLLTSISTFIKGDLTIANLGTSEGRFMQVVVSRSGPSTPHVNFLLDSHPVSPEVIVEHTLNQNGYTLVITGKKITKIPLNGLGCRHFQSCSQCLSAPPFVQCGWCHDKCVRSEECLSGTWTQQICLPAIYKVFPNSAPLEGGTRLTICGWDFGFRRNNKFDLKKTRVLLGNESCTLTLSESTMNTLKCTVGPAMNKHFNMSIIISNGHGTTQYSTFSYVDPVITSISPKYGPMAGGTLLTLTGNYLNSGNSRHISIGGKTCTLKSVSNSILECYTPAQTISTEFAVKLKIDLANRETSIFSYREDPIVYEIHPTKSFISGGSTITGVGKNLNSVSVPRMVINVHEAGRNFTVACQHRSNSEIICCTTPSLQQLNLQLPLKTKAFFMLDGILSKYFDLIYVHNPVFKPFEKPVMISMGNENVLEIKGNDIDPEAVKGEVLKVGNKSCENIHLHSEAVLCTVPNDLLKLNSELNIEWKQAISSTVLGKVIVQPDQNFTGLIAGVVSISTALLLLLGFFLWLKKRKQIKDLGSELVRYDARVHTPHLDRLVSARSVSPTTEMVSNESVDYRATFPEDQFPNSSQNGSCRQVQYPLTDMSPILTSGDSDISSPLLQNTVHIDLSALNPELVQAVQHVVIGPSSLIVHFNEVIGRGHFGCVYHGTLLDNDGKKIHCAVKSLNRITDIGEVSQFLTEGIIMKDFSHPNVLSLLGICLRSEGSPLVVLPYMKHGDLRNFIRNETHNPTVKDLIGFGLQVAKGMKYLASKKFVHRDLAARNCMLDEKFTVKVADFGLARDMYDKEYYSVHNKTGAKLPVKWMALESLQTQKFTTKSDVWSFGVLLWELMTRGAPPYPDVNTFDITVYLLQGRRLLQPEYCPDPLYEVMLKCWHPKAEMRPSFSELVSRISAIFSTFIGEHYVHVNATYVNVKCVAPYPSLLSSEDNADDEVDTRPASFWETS
Method: Because MET kinase belonged to Class VIII RTK family have one transmembrane a chain linked with one extracellular β chain which is different form Class III RTK family with 5 Immunoglobin-like extracellular domains. Standard assay conditions were 1 ng of recombinant MET kinase (SignalChem) with 3 ng Biotin-conjugated Poly-(Glu 4: Tyr 1) (Cisbio) in the assay buffer ([…], 10 mM MOPs, pH 7.0, 0.21 mM EDTA, 0.5% glycerol, 1 mg/mL BSA, 0.01% 2-mercaptoethanol, 0.001% Brij35, 10 mM MgCl2) in a final volume of 25 μL. Reactions were incubated at 30° C. for 45 min and stopped by adding 5 μL of 50 mM EDTA. Analysis of resulting product using an AlphaScreen kit and counted with Enspire Alpha (PerkinElmer). […] The IC50 values of inhibitors were determined after carrying out assays with each compound at serially diluted concentrations in duplication. The results were analyzed using linear regression software (GraphPad Prism 5; GraphPad Software Inc.)

| IC50 (FLT3 kinase) | IC50 (FLT3-D835Y mutant kinase) | IC50 (PDGFRα kinase) | IC50 (MET kinase) | SMILES | reducing myelin loss in EAE [1] |
| --- | --- | --- | --- | --- | --- |
|  |  |  |  | C[C@]12O[C@H](C[C@]1(O)CO)n1c3ccccc3c3c4c(c5c6ccccc6n2c5c31)CNC4=O [CEP-701] | effective in reducing myelin loss |
| 1 to 10 nM | 1 to 10 nM | 1 to 10 nM | > 1000 nM | Brc1n[nH]c2cc(-c3n[nH]c4c3Cc3sc(-c5ccc(CN6CCOCC6)cc5)cc3-4)ccc12 [Compound 68, 4-(4-(3-(3-bromo-1H-indazol-6-yl)-1,4-dihydro-thieno[2′,3′:4,5]cyclopenta [1,2-c]pyrazol-6-yl)benzyl)morpholine] |  |
